Measurements reported in patent US9492471B2, “Methods of treating a disease or disorder associated with Bruton'S Tyrosine Kinase” (Celgene Avilomics Research, Inc., priority 2013, dated 2016).
Like-named read-outs stand apart in the source and are kept apart here.

Experiments:
Test in all cases: HotSpot kinase profiling
Format in all cases: biochemical
PKCb1 = target: T1, PKCb1 (Homo sapiens, UniProt P05771)
T1 construct: purchased Reaction Biology Corp
In short: (§1)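 P81 filtration radiometric readout; 2 h incubation at room temperature; 0.1% phosphoric acid wash; DMSO negative control; % inhibition, mean of replicate runs.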

DCAMKL2 = target: T2, DCAMKL2 (Homo sapiens, UniProt Q8N568)
T2 construct: purchased Reaction Biology Corp
T2 sequence (Q8N568 1-766): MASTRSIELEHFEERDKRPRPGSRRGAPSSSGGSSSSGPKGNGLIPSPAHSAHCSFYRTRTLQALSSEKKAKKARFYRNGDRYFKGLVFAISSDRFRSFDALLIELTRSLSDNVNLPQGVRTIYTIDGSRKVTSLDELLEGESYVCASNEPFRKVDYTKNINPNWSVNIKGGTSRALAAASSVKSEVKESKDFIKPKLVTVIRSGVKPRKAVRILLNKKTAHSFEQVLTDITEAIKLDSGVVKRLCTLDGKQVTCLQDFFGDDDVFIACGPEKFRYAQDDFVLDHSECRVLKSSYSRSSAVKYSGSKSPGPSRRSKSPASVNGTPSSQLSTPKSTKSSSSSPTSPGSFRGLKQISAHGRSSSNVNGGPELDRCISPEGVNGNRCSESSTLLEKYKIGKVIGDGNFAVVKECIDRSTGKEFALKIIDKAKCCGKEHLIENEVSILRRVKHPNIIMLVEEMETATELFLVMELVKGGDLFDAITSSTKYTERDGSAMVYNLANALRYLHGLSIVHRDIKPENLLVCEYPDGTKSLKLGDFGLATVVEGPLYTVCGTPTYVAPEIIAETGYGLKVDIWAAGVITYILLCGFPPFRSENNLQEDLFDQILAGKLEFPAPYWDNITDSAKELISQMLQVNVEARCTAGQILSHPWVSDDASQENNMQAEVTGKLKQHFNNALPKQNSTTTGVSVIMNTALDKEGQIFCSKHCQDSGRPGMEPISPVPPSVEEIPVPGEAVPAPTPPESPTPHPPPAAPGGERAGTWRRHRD
In short: as §1

TRKA = target: T3, TRKA (Homo sapiens, UniProt P04629)
T3 construct: purchased Reaction Biology Corp
T3 sequence (P04629 33-796): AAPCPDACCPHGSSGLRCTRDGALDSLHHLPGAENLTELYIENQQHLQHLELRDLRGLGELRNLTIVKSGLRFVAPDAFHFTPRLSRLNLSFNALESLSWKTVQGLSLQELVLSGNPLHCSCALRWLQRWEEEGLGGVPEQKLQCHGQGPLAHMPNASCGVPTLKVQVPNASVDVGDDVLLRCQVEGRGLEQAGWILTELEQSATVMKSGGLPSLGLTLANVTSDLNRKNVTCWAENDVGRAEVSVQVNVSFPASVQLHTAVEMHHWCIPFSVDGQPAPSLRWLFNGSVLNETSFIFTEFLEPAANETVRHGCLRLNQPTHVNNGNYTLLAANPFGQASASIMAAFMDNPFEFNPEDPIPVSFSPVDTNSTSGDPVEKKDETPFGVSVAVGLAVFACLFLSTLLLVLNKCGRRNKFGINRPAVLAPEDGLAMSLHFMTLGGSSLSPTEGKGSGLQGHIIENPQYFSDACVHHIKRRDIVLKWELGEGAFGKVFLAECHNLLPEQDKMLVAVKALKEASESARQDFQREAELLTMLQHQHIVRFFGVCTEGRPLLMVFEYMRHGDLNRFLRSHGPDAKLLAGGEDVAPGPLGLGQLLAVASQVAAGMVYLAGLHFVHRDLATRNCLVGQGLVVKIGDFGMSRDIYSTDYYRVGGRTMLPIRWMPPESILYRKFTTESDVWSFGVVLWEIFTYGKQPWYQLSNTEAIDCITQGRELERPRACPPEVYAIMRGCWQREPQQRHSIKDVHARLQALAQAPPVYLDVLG
In short: as §1

PKCb2 = target: T4, PKCb2 (Homo sapiens, UniProt P05771)
T4 construct: purchased Reaction Biology Corp
T4 sequence (P05771 1-673 isoform P05771-2): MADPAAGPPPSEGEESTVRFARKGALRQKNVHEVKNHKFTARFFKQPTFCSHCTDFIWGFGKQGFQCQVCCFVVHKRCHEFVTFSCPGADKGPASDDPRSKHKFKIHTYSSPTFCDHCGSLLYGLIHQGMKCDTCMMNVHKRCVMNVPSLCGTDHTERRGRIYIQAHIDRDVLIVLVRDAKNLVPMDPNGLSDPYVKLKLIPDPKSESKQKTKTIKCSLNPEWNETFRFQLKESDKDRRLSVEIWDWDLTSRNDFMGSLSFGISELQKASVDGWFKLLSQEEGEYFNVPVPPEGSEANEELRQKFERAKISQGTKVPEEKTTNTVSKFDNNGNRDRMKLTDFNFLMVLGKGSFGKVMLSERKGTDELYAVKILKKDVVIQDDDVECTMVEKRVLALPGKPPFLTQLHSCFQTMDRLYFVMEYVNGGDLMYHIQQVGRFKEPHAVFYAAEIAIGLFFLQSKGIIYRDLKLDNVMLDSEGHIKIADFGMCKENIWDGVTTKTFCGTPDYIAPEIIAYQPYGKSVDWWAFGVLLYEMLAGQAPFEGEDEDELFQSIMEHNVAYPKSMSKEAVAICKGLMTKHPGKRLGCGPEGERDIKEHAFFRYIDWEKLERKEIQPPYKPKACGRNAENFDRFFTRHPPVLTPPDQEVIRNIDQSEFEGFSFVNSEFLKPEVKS
In short: as §1

DDR2 = target: T5, DDR2 (Homo sapiens, UniProt Q16832)
T5 construct: purchased Reaction Biology Corp
T5 sequence (Q16832 22-855): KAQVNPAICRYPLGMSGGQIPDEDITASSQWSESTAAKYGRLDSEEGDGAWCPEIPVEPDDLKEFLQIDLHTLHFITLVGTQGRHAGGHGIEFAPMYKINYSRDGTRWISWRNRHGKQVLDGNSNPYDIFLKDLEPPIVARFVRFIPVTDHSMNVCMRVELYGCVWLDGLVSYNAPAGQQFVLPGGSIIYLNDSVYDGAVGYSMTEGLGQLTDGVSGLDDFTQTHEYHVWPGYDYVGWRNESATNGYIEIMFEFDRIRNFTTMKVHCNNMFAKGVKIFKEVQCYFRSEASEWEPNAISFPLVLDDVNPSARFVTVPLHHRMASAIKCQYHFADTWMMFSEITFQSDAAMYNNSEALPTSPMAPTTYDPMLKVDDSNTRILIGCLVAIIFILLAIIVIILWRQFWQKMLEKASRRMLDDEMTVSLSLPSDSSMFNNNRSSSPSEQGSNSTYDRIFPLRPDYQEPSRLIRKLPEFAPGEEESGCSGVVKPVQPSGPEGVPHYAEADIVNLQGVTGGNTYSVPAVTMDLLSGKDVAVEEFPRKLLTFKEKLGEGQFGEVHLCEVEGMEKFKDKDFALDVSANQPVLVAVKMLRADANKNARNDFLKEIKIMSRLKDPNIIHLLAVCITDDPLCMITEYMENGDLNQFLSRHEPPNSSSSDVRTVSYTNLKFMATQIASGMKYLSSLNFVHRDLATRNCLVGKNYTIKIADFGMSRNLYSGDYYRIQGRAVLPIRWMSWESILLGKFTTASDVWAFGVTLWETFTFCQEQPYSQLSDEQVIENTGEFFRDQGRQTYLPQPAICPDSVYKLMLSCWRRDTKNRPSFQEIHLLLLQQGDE
In short: as §1

IRAK4 = target: T6, IRAK4 (Homo sapiens, UniProt Q9NWZ3)
T6 construct: purchased Reaction Biology Corp
T6 sequence (Q9NWZ3 1-460): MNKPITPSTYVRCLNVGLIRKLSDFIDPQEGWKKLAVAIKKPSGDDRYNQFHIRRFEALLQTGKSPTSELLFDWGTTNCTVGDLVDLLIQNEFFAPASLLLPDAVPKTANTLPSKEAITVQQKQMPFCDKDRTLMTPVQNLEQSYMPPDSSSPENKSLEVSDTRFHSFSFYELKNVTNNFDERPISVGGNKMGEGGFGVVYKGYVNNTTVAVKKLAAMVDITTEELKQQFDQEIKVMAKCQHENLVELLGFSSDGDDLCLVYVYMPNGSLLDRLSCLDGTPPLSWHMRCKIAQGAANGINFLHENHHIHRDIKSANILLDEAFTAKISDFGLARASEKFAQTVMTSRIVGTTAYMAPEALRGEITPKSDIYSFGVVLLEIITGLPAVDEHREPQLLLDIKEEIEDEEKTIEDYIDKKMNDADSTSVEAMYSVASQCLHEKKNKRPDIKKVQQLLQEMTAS
In short: as §1

[1] = read-out: % Enzyme Activity (relative to DMSO controls) Run 1
[2] = read-out: % Enzyme Activity (relative to DMSO controls) Run 2

T1 sequence (P05771 whole entry): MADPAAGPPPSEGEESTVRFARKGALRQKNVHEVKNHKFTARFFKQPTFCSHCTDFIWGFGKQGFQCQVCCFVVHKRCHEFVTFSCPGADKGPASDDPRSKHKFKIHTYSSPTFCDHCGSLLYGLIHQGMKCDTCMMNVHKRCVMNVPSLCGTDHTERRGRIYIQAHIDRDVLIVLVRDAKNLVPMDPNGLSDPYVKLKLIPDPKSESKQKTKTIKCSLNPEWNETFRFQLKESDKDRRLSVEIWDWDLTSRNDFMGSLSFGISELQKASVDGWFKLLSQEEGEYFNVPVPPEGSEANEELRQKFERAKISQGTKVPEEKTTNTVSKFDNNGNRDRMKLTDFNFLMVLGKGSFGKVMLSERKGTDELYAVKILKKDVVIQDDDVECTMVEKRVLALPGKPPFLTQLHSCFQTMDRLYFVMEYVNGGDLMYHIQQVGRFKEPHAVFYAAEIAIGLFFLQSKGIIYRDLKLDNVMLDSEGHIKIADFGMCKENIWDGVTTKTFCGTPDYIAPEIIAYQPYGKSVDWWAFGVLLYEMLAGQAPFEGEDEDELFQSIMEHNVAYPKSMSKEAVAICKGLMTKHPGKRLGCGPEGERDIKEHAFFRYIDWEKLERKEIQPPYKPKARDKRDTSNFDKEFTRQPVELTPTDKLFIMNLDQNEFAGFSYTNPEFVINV

C=CC(=O)Nc1cccc(Nc2nc(Nc3ccc(OCCOC)c(F)c3)ncc2F)c1 [Compound 2]
inhibition at 3 µM (PKCb1): 27.6%
remaining activity at 3 µM (PKCb1; [1]): 72.7%
remaining activity at 3 µM (PKCb1; [2]): 72.1%
inhibition at 3 µM (DCAMKL2): 0.18%
remaining activity at 3 µM (DCAMKL2; [1]): 100%
remaining activity at 3 µM (DCAMKL2; [2]): 99.5%
inhibition at 3 µM (TRKA): -17.7%
remaining activity at 3 µM (TRKA; [1]): 117%
remaining activity at 3 µM (TRKA; [2]): 118%
inhibition at 3 µM (PKCb2): 50.5%
remaining activity at 3 µM (PKCb2; [1]): 50.1%
remaining activity at 3 µM (PKCb2; [2]): 48.9%
inhibition at 3 µM (DDR2): -3.87%
remaining activity at 3 µM (DDR2; [1]): 103%
remaining activity at 3 µM (DDR2; [2]): 105%
inhibition at 3 µM (IRAK4): 12.4%
remaining activity at 3 µM (IRAK4; [1]): 88.6%
remaining activity at 3 µM (IRAK4; [2]): 86.5%
